Data on 1 compound can be found in PMC12049818, “Identification of NUV-244 as a PNPLA3 I148M degrading small molecule” (iScience, 2025).

For orientation: EC50 means the concentration giving half of the maximal effect.

In data set [1] the target is T1, PNPLA3 I148M-tagRFP (Homo sapiens, UniProt Q9NST1, I148M).
T1 construct: host or cells: Huh7
T1 sequence (Q9NST1 1-481 I148M): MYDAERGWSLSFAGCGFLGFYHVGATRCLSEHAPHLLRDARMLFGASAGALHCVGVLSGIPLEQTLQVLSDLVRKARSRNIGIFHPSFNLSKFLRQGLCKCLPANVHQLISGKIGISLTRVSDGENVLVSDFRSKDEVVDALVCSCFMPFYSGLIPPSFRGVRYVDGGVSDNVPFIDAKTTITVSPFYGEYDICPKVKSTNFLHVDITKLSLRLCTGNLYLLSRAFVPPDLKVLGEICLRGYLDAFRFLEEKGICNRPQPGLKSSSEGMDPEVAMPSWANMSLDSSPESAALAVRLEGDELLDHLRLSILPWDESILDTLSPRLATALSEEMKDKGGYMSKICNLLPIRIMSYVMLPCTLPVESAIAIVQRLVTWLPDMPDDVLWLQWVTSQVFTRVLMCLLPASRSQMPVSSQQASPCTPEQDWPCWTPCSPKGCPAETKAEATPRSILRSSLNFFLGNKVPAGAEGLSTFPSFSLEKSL
Nature of the data set: Huh7 PNPLA3 I148M-tagRFP reduction on lipid droplets (high-content imaging). It is filed as cell-based. The method, then: For dose-response cells were seeded at 4000 c/30 μl per well in 384 well plates (Revvity, Waltham, MA, USA, PhenoPlate 384-well microplate, #6057308) and stored in a 37°C incubator with 5% CO2 and 95% humidity overnight. Compounds, serially diluted, and DMSO controls were added, and cells were incubated for another 24h. Cells were fixed and stained with a mixture of Paraformaldehyde (final 1%, Electron Microscopy Science), BODIPY (final 38 nM, Invitrogen) and Hoechst 33342 (final 2 μg/ml, Biotium) diluted in PBS for 30 min at room temperature in the dark (no wash off).
Confocal images were acquired using the Opera Phenix system (Revvity, USA) with a 10x, 20x or 40x water objective and excitation at 405 nm (Hoechst), 488 nm (BODIPY), and 532 nm (PNPLA3 I148M-tagRFP).
(§1) Images were analyzed using Harmony (Revvity) and MetaXpress software (Molecular Devices, USA) to quantify lipid droplet morphology and PNPLA3 I148M-tagRFP intensity.
Assay plates were evaluated based on Z’ scores (>0.6) and signal-to-background ratio (>12) using Genedata Screener® for HTS and Condoseo modules (Genedata, Switzerland). Normalization, quality control, and fitting curves for EC50 determination of tested compounds were performed with Genedata Screener® for high-content screening and Genedata Condoseo modules (Genedata AG, Basel, Switzerland). More than 820K cpds were screened on 791 1536W plates in 11 runs covering three weeks of primary HTS. Automated image analysis routines were set up to quantify the number, morphology and intensity of nuclei, lipid droplets and the intensity of PNPLA3 I148M-tagRFP on lipid droplets. Toxic or autofluorescent compounds were excluded from the hitlist based on nuclear count, area, and intensity measurements as well as lipid droplet staining intensity compared to control cells.

Data set [2] concerns LX-2 cells. Briefly: Incucyte growth curves, LX-2. The settings on record: 1μM or 5μM; compared to DMSO. It is filed as cell-based, human. Here is the method:
(§2) Huh7, Huh7 PNPLA3 I148M, Huh7 PNPLA3, Hep3b and LX-2 cells were seeded at a concentration of 1000 cells/well in 60 μl of growth medium on 384-well microtiter plates (Revvity, Waltham, MA, USA, PhenoPlate 384-well microplate, #6057308) and stored in a 37°C incubator with 5% CO2 and 95% humidity overnight. Next day cells were treated with DMSO as control (1% final concentration) or compound (1μM or 5μM final concentration) and cell density was recorded in the Incucyte® life cell imager (Sartorius, Göttingen, Germany) every 4 hours over a period of 5 days. Growth curves were generated by monitoring confluence over time. Proliferative capacity of PNPLA3 I148M-expressing cells was compared to control cells, and the restoration of proliferative fitness was analyzed.

In data set [3] the test system is Huh7 cells. Nature of the data set: Incucyte growth curves, Huh7. In kind it is cell-based, human. Conditions: 1μM or 5μM; compared to DMSO. Here is the method: as §2
Data set [4] concerns Huh7 cells expressing PNPLA3 I148M-tagRFP. Briefly: Lipid droplet dispersion / normalization of lipid droplet morphology in Huh7 PNPLA3 I148M-tagRFP cells. It is filed as cell-based, human.
Description: During the HTS we observed that PNPLA3 I148M-tagRFP expression altered the morphology of lipid droplets compared to the Huh7 parental control cells. PNPLA3 I148M-tagRFP expression leads to clustering of large lipid droplets around the nucleus and a reduction of small cytoplasmic lipid droplets, which is reflected by changes (lowering) in the number of lipid droplets scorable by the lipid droplet detection algorithm per cell (Figures 4A and 4B, Video S1). Indeed, a role for PNPLA3 I148M in the regulation of lipid droplet morphology is known.[12]^,[13]^,[15]^,[16]^,[21]^,[33] We speculated that reduction of PNPLA3 I148M-tagRFP on lipid droplets of Huh7 cells should therefore restore lipid droplet morphology back to the WT situation in the parental cell line. For this we analyzed all hits at the retest stage in the primary assay. […]
as §1
Assay plates were evaluated based on Z’ scores (>0.6) and signal-to-background ratio (>12) using Genedata Screener® for HTS and Condoseo modules (Genedata, Switzerland). […] Automated image analysis routines were set up to quantify the number, morphology and intensity of nuclei, lipid droplets and the intensity of PNPLA3 I148M-tagRFP on lipid droplets. […]

SMILES strings stand for the structures. Like-named read-outs stand apart in the source and are kept apart here.

For the compound `Cc1cccc(Cc2nc(C)c(C(=O)Nc3cc(O)ccc3Cl)s2)c1` [NUV-244], the EC50 in data set [1] (HTS batch (hit), 24h, two independent determinations, read-out: EC50 Huh7, PNPLA3 I148M-tagRFP reduction) stood at 2.28e-07 ± 3.1e-08 M; in data set [1] (representative dose-response curve, Figure 2D, read-out: EC50 [M] Huh7, PNPLA3-I148M-tagRFP), 2.05e-07 M; in data set [1] (representative dose-response curve, Figure 3B, read-out: EC50 [M] Huh7, PNPLA3 I148M-tagRFP) it was 3.51e-07 M; in data set [1] (resynthesis, representative curve, Figure 4C, read-out: EC50 [M] Huh7, PNPLA3 I148M-tagRFP intensity on lipid droplets), 3.8e-07 M; in data set [4] (Homo sapiens, Huh-7, resynthesis, representative curve, Figure 4C, read-out: EC50 [M] Lipid droplet aggregates), 4.84e-07 M. Further, in data set [2], the “effect on proliferative capacity, LX-2” value is reported as “no effects”. Further, in data set [3], the “effect on proliferative capacity, Huh7” value is given as “no effects”. In addition, the “appearance of small mobile lipid droplets (time-lapse)” value in data set [4] (5μM for 24h, Huh7 expressing PNPLA3 I148M) is given as “partially restore”.
